BindingDB's records for doi:10.1021/acs.jmedchem.9b00068 (University of Michigan, 2019)

Legend:
[1] = target: T1, Eukaryotic translation initiation factor 4E (Homo sapiens, UniProt P06730); assay: Binding affinity to N-terminal 10His-tagged m7GDP-bound recombinant human eIF4E expressed in Escherichia coli BL21 (DE3) cells assessed as dissociation constant at 25 degreeC in presence 225 to 1000 mM of NaCl by surface plasmon resonance analysis
[2] = target: T1, Eukaryotic translation initiation factor 4E; assay: Binding affinity to N-terminal 10His-tagged m7GDP-bound recombinant human eIF4E expressed in Escherichia coli BL21 (DE3) cells assessed as dissociation constant at 25 degreeC by surface plasmon resonance analysis

T1 sequence (P06730 whole entry): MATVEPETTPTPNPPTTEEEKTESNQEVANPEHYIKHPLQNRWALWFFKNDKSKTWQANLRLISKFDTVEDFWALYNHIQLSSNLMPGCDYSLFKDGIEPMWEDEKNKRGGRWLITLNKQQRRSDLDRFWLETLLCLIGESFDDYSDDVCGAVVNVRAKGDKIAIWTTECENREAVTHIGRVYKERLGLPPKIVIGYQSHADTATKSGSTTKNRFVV

Compound | Kd [1] | Kd [2]
CC(=O)N[C@@H](CCCCN)C(=O)N[C@@H](CCCCN)C(=O)N[C@@H](CCCNC(=N)N)C(=O)N[C@@H](Cc1ccc(O)cc1)C(=O)N[C@@H](CC(=O)O)C(=O)N[C@@H](CCCNC(=N)N)C(=O)N[C@@H](CCC(=O)O)C(=O)N[C@@H](Cc1ccccc1)C(=O)N[C@@H](CC(C)C)C(=O)N[C@@H](CC(C)C)C(=O)NCC(=O)N[C@@H](Cc1ccccc1)C(=O)N[C@@H](CCC(N)=O)C(=O)N[C@@H](Cc1ccccc1)C(N)=O | 0.046 nM | –
Ac-KKRYSREQLLGL-NH2 | – | 123 nM
